Data published in patent publication US9771368B2, “18F-labelled folates” (priority 2007, dated 2017).

How the values were obtained:
[1] = target: T1, folate receptor (Homo sapiens, UniProt P15328); assay: ex vivo biodistribution studies in nude mice bearing KB xenografts tumors; conditions: nude mice, KB xenograft tumors; ~2 MBq radiotracer; blockade group 200 μg natural folic acid 10 min prior; 90 min post injection
T1 construct: endogenous in cells; host or cells: KB tumour xenografts in nude mice
T1 sequence (P15328 25-234 limits assumed): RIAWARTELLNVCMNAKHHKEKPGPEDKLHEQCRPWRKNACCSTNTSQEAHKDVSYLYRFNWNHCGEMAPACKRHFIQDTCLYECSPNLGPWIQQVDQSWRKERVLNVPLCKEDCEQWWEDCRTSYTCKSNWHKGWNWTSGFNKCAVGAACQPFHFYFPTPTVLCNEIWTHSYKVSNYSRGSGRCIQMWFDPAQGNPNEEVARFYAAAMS
Experimental: (§1) 2′-[^18F]fluoro-folic acid was applied in ex vivo biodistribution studies using eight nude mice bearing KB xenografts tumors. ˜2 MBq of the radiotracer were injected into each animal. In a blockade group 200 μg natural folic acid was injected 10 min prior to the radiotracer. The animals were scarified 90 min post injection.

[2] = system: folate receptor; assay: as above
Experimental: as §1

[3] = system: folate receptor; assay: in vivo PET imaging in nude mice bearing KB xenografts tumors
Experimental: In vivo PET imaging using the 2′-[^18F]fluoro-folic acid was performed in nude mice bearing KB xenografts tumors. Ca. 10 MBq of the radiotracer were injected into each animal. In the blockade group 200 μg natural folic acid was injected 10 min prior to the radiotracer. The PET scans were acquired from 30 min to 90 min post injection.

specific uptake of the radiotracer in folate receptor-positive KB tumors, ratio of specific blockade [1]: 86.6%
uptake in folate receptor-positive tissues (FIG. 1) ([2]; ex vivo biodistribution, nude mice bearing KB xenografts): high specific uptake
uptake of the radiotracer in the kidney cortex ([3]; PET, kidney cortex, 30-90 min post injection): high specific uptake
uptake of the radiotracer in the kidney medulla ([3]; PET, kidney medulla, 30-90 min post injection): no uptake
Compound: Nc1nc2ncc(CNc3ccc(C(=O)N[C@@H](CCC(=O)O)C(=O)O)c([18F])c3)nc2c(=O)[nH]1 [2′-[^18F]fluoro-folic acid]
specific uptake in the kidneys, specific blockade ([2]; nude mice, kidneys, ~2 MBq radiotracer, blockade group 200 μg natural folic acid 10 min prior, 90 min post injection): 95.5%
specificity of uptake (blockade by natural folic acid) ([3]; ca. 10 MBq, blockade group 200 μg natural folic acid 10 min prior, PET 30-90 min post injection): highly specific and blocked by natural folic acid
